Experimental findings from publication PMC9866940 (Viruses, 2022) are described below.

One data set has as its system JUNV (Candid #1 strain). The experiment in a line: microbe, parasite or virus in culture. The format is cell-based, Junin virus (JUNV).
In another data set the test system is LASV MG. Put plainly: microbe, parasite or virus in culture. Particulars: for inhibition of LASV MG activity (rescreening): 5 µM; for inhibition at 5 µM: Huh-7, read-out: inhibition of LASV MG activity (rescreening). The class given is cell-based, Lassa virus (LASV).
In another data set the test system is JUNV MG. Put plainly: microbe, parasite or virus in culture. The class given is cell-based, Junin virus (JUNV).
For data set [1], the system named is A549 cells.
The test system of another data set is Huh-7 cells. Particulars: 5 µM.
Data set [2] is described as follows: in vitro. Conditions: human.
A further data set concerns LCMV (rLCMV.Arm). Put plainly: microbe, parasite or virus in culture. The format is cell-based, lymphocytic choriomeningitis virus (LCMV).
A further data set concerns LCMV MG. The format is cell-based, lymphocytic choriomeningitis virus (LCMV). Conditions: 5 µM.
Data set [3] concerns A549 cells. This is another data set of the same source.
A short description of data set [4]: in vitro. Particulars: human. The source holds these as a separate data set.
Data set [5] in a line: in vitro. Conditions: human. This is another data set of the same source.
Data set [6] in a line: in vitro. Particulars: human. The source holds these as a separate data set.
The mark [7] stands for this setting: Mammarenavirus juninense, A549, 48 h.
The mark [8] stands for this setting: Mammarenavirus lassaense, Huh-7.
Where [9] appears, read: Mammarenavirus juninense, Huh-7.
Where [10] appears, read: Mammarenavirus choriomeningitidis, A549, 24 h.

Where a name gives a salt, the structure may show the parent alone. Read-outs that look alike come from different tables or passages of the source.

As a reminder, the IC50 is the concentration that gives 50% inhibition. For the compound `COc1c(C)c2c(c(O)c1C/C=C(\C)CCC(=O)O)C(=O)OC2` [MPA, mycophenolic acid], the IC50 in the data set on JUNV (Candid #1 strain) (setting [7]) is 970 nM; in the data set on LASV MG (setting [8]), 370 nM; with JUNV MG (setting [9]), 420 nM.

In the data set with A549 cells [1] (human), `CCN(CC)CCCC(C)Nc1c2ccc(Cl)cc2nc2ccc(OC)cc12` (stereo not shown) [QDD, quinacrine dihydrochloride dihydrate] registered a CC50 of 28000 nM. For the same compound, the IC50 with JUNV (Candid #1 strain) stood at 4660 nM; in the data set on LASV MG, 1280 nM; in the data set on JUNV MG it was 1460 nM. For the same compound, the “cell viability (rescreening)” value in the data set on Huh-7 cells (human) is listed as greater than 70%. The “inhibition of LASV MG activity (rescreening)” value in the data set with LASV MG is recorded as “at least 90%”.

Consider `CN(C)CCN1C(=O)c2cccc3cc(N)cc(c23)C1=O` [amonafide], for which the IC50 in the data set on JUNV (Candid #1 strain) (setting [7]) came to 5750 nM; with LCMV (rLCMV.Arm) (setting [10]), 10000 nM; in the data set with LASV MG (setting [8]) it was 2890 nM; in the data set with JUNV MG (setting [9]), 2900 nM. The compound further had a CC50 in the data set “in vitro [2]” of no less than 40000 nM.

For the compound `Cc1c2ccncc2c(C)c2c1[nH]c1ccccc12.Cl` [ellipticine hydrochloride], the CC50 with A549 cells [1] is 32500 nM; with A549 cells [3], no less than 20000 nM. The IC50 with JUNV (Candid #1 strain) (read-out: IC50) worked out at 1730 nM; with LCMV (rLCMV.Arm) (read-out: IC50) it was 1500 nM; in the data set with LASV MG (read-out: IC50), 760 nM; in the data set on JUNV MG (read-out: IC50), 760 nM. For the same compound, the “inhibition of LCMV MG activity” value with LCMV MG is listed as 95%.

As for `CC(=O)[C@]1(O)Cc2c(O)c3c(c(O)c2[C@@H](O[C@H]2C[C@H](N)[C@H](O)[C@H](C)O2)C1)C(=O)c1ccccc1C3=O` [idarubicin hydrochloride], the IC50 in the data set with JUNV (Candid #1 strain) (setting [7]) turned out to be 2560 nM; in the data set on LCMV (rLCMV.Arm) (setting [10]), 590 nM; in the data set with LASV MG (setting [8]), 60 nM; with JUNV MG (setting [9]) it was 120 nM. This compound came in with a CC50 in “in vitro [2]” of 790 nM.

For `NCCNc1ccc(NCCN)c2c1C(=O)c1ccncc1C2=O.O=C(O)/C=C\C(=O)O.O=C(O)/C=C\C(=O)O` [pixantrone maleate], the results for the CC50 in the data set with A549 cells [1] and with A549 cells [3] were 30300 nM and no less than 40000 nM, respectively. In addition, the IC50 in the data set on JUNV (Candid #1 strain) (read-out: IC50) was 3660 nM; in the data set on LCMV (rLCMV.Arm) (read-out: IC50), 4750 nM; in the data set on LASV MG (read-out: IC50), 1010 nM; with JUNV MG (read-out: IC50) it was 1810 nM. The “cell viability (rescreening)” value in the data set on Huh-7 cells was greater than 70%. For the same compound, the “inhibition of LASV MG activity (rescreening)” value in the data set on LASV MG was “at least 90%”.

The viability is the share of living cells, or the viability signal relative to a control. Read a low viability as more harm to the cells. In general, inhibition refers to the percentage by which the read-out fell short of the control. Regarding `Nc1ccc2cc3ccc(N)cc3nc2c1` [proflavine], the IC50 came to 2450 nM in the data set with JUNV (Candid #1 strain) (setting [7]), 1040 nM with LASV MG (setting [8]) and 1360 nM with JUNV MG (setting [9]). In “in vitro [4]”, this compound returned a viability at 5 µM greater than 70%. In the data set on LASV MG (Mammarenavirus lassaense), the inhibition at 5 µM was no less than 90%.

On to `CCN(CC)CCCC(C)Nc1c2ccc(Cl)cc2nc2ccc(OC)cc12` (stereo not shown) [quinacrine dihydrochloride], for which the IC50 in the data set on JUNV (Candid #1 strain) (setting [7]) worked out at 7330 nM; with LASV MG (setting [8]), 1670 nM; in the data set on JUNV MG (setting [9]), 1510 nM. Further, the viability at 5 µM in the data set “in vitro [4]” is greater than 70%. In the data set on LASV MG (Mammarenavirus lassaense), the inhibition at 5 µM was no less than 90%.

For `NC(=O)c1ncn([C@@H]2O[C@H](CO)[C@@H](O)[C@H]2O)n1` [ribavirin, Ribavirin], the IC50 was 45400 nM with JUNV (Candid #1 strain) (setting [7]), 20200 nM in the data set with LCMV (rLCMV.Arm) (setting [10]), 15400 nM in the data set with LASV MG (setting [8]) and 38200 nM in the data set with JUNV MG (setting [9]). Also, the CC50 in the data set “in vitro [2]” is no less than 100000 nM; in “in vitro [4]” (CC50) it was no less than 200000 nM; in the data set “in vitro [5]”, no less than 200000 nM; in “in vitro [6]”, no less than 200000 nM.

For the compound `CN[C@H]1CN(c2ccc3c(=O)c(C(=O)O)cn(-c4nccs4)c3n2)C[C@@H]1OC` [voreloxin (SNS 595) hydrochloride], the values for the CC50 in the data set with A549 cells [1] and in the data set on A549 cells [3] were 13300 nM and no less than 40000 nM, respectively. The IC50 in the data set with JUNV (Candid #1 strain) (read-out: IC50) came out at 5230 nM; in the data set with LCMV (rLCMV.Arm) (read-out: IC50) it was 8500 nM; with LASV MG (read-out: IC50) it was 1820 nM; with JUNV MG (read-out: IC50), 1150 nM.
